Legend:
Type in all cases: cell-based, human
2-NBDG uptake = assay: Uptake of 2-NBDG in WM9 cells; details: WM9, 72 h, Gamitrinib combined with PLX4720 10 μM
Protocol: Cells were washed with HBSS and were then pre-incubated with Opti-MEM (Life Technologies) for 15 min. Cells were then incubated with DMEM deprived of glucose, glutamine and phenol red (Life Technologies, cat. #A14430-01) and Fetal Bovine Serum that was supplemented with 2-NBDG (Cayman Chemical, cat. #11046) at […] for 1 h. Cells were washed with HBSS and were immediately harvested for FACS analysis.

[1] = tested on: mitochondrial DNA copy number; assay: Mitochondrial DNA copy number; details: WM9, Gamitrinib 1 μM combined with PLX4720 and PD0325901 or LGX818 and MEK162
Protocol: Mitochondria DNA copy number was measured by the ratio of a mitochondrial gene, mtDNA-3, and a nuclear gene, 18S rRNA. The mtDNA-3/18S rRNA ratio was quantified by qRT-PCR on an Applied Biosystems 7500 Fast Real-Time PCR System. The reaction mixtures (25 μL final volume) contained 12.5 μL Fast SYBR Green Master Mix, 500 nM of each primer and 10 ng genomic DNA. The reaction conditions were 95° C. for 20 s, followed by 45 cycles of 95° C. for 3 s and 60° C. for 30 s. The relative mtDNA copy number was analyzed by the 2-ΔΔCt method.

reactive oxygen species = assay: ROS by CellROX Deep Red; details: WM9, 72 h, Gamitrinib 1 μM with PLX4720 10 μM and PD0325901 1 μM
Protocol: (§1) Adherent melanoma cells were harvested with 0.05% Trypsin-EDTA and were washed once with 1×DPBS. Cells were labeled with CellTrace™ Violet according to the manufacturer's protocol and were allowed to adhere to tissue culture plates overnight following the drug treatment. At indicated time points following the drug treatment, floating and adherent cells were pooled, washed with Hank's Buffered Salt Solution (HBSS) and then stained with CellROX Deep Red at 2.5 μM or MitoTracer Red at 0.25 μM for 1 h in a 37° C. humidified incubator supplied with 5% CO2. Cells were then pelleted, washed with DPBS, and stained with PSVue® 643 at 5 μM diluted in TES buffer for 5 min in the dark. Cells were then immediately subjected to FACS analysis using a BD LSR II flow cytometer and at least 5,000 cells per sample were acquired.
Labeling cells with CellROX Deep Red—Following drug treatment, floating and adherent cells were pooled and stained in FACS tubes with CellROX Deep Red at 2.5 μM. Fluorescent dyes were diluted in 10% DMEM/F12 culture medium. Stained cell suspensions were kept in a 37° C. tissue culture incubator for 60 min with brief vortexing every 30 min. Cells were then washed with 1×PBS supplemented with 10% FBS.

mitochondrial mass = assay: Mitochondrial mass by MitoTracker Red; details: WM9, 72 h, Gamitrinib 1 μM combined with MAPK pathway inhibitors
Protocol: as §1

[2] = tested on: mitochondrial respiratory chain complex subunits; assay: Expression of mitochondrial respiratory chain complex subunits in WM9 cells (qRT-PCR, RPPA, immunoblot)
Protocol: One μg total mRNA was reverse transcribed using a Maxima First Strand cDNA Synthesis Kit for qRT-PCR (Thermo Fisher). Fast SYBR® Green Master Mix (Life Technologies) was used with cDNA template and primers to evaluate the expression of target genes and GAPDH. Primers used were purchased from Integrated DNA Technologies. Amplifications were performed using an Applied Biosystems® 7500 Real-Time PCR System (Life Technologies). All experiments were performed in triplicate. Expression ratios of controls were normalized to 1. Please see Extended Experimental Procedures for the list of PCR primer sequences. The raw data of gene expression microarrays generated from Illumina Chips were normalized, background-corrected and summarized using the R package “lumi” (Du et al., 2008). […] To reduce false positives, the unexpressed probes were removed. The R package “limma” (Smyth, 2004, 2005) was employed for gene differential expression analysis, followed by multiple test correction by the Benjamini and Hochberg procedure (Benjamini and Hochberg, 1995). […] We also conducted GSEA as previously reported (Subramanian et al., 2005). For GSEA, we analyzed gene sets obtained from the Molecular Signatures Database (broadinstitute.org/gsea/msigdb/). The same differential expression analysis method was applied to RPPA data. Cells were washed with ice-cold PBS containing 100 μM Na3VO4 and scraped off culture dishes. After centrifugation, cell pellets were lysed in buffer containing 10 mM Tris-HCl, pH 7.8, 150 mM NaCl, 1 mM EDTA, 1% Nonidet P-40, 1 mM Na3VO4 and protease inhibitors (Roche complete protease inhibitor tablets). Lysates were cleared by micro-centrifugation and protein concentrations were determined with Protein Assay Dye Reagent Concentrate (Bio-Rad). For western blots, 25 μg of each lysate were run on 15-well 10% or 12% SDS-PAGE gels and transferred onto nitrocellulose membranes using a dye fast Trans-BlotR Turbo™ transfer system (Bio-Rad). Blots were blocked in SEA BLOCK Blocking Buffer (Thermo Scientific) diluted with 1×TBS at 1:1 ratio at room temperature for 1 h, incubated overnight with primary antibody at 4° C., stained with secondary antibodies conjugated to IRDye® Infrared Dyes (LI-COR Biosciences) and then visualized using an Odyssey flatbed scanner (LI-COR Biosciences).

## Gamitrinib
2-NBDG uptake
  uptake of 2-NBDG: decreased uptake of 2-NBDG
[1]
  mitochondrial DNA copy number: decreases in mitochondrial DNA copy number
Reactive oxygen species
  ROS production compared to MAPK pathway inhibitors alone: markedly increased the ROS production
Mitochondrial mass
  mitochondrial mass: decreases
[2]; WM9, 72 h, Gamitrinib 1 μM with PLX4720 10 μM or PLX4720 and PD0325901 1 μM, RPPA
  expression of mitochondrial respiratory chain complex subunits (SDHA, SDHB, UQCRC2, ATP5H, cyclophilin D) induced by MAPK inhibitors: significant reduction
[2]; WM9, immunoblotting, 72 h time course
  5 mitochondrial respiratory chain complex subunits: down-regulated
